“And” between values parts separate entries of the source, which are not always exact repeats. Equal entries are not always repeated. Inconclusive results and toxic doses are left out.

This is an account of results in PubChem BioAssay AID246 (DTP/NCI, 2004).

For the experiment, the system named is BDF1 mice, P1081 chloroleukemia ip, survival T/C. Description: NCI In Vivo Anticancer Drug Screen. Data for tumor model P1081 Chloroleukemia (intraperitoneal) in B6D2F1 (BDF1) mice. Particulars: endpoint: mean survival time, higher = longer survival. On the procedure: The antitumor activity of compounds was measured in mice bearing transplantable tumors. Survival or tumor size were measured and the results are expressed as the measurement made in the treated group (T) divided by the measurement made in the vehicle treated control group (C). The tumor model used in this assay is P1081 Chloroleukemia (intraperitoneal) in B6D2F1 (BDF1) mice

The mark [1] stands for this setting: dose: 5.0 mg/kg/injection, schedule: Q01DX010 (ip), vehicle: saline.
Where [2] appears, read: dose: 10.0 mg/kg/injection, schedule: Q01DX010 (ip), vehicle: saline.
Setting [3] is: dose: 20.0 mg/kg/injection, schedule: Q01DX010 (ip), vehicle: saline.
The mark [4] stands for this setting: dose: 40.0 mg/kg/injection, schedule: Q01DX010 (ip), vehicle: saline.
[5] abbreviates: dose: 62.5 mg/kg/injection, schedule: Q01DX Z (ip), vehicle: carboxymethylcellulose (CMC).
The mark [6] stands for this setting: dose: 125.0 mg/kg/injection, schedule: Q01DX Z (ip), vehicle: carboxymethylcellulose (CMC).
[7] abbreviates: dose: 250.0 mg/kg/injection, schedule: Q01DX Z (ip), vehicle: carboxymethylcellulose (CMC).
[8] abbreviates: dose: 1.25 mg/kg/injection, schedule: Q01DX Z (ip), vehicle: saline.
[9] abbreviates: dose: 2.5 mg/kg/injection, schedule: Q01DX Z (ip), vehicle: saline.
The mark [10] stands for this setting: dose: 12.5 mg/kg/injection, schedule: Q01DX010 (ip), vehicle: saline.
Setting [11] is: dose: 25.0 mg/kg/injection, schedule: Q01DX010 (ip), vehicle: saline.
The mark [12] stands for this setting: dose: 50.0 mg/kg/injection, schedule: Q01DX010 (ip), vehicle: saline.
[13] abbreviates: dose: 6.25 mg/kg/injection, schedule: Q01DX Z (sc), vehicle: steriod suspending solution.
The mark [14] stands for this setting: dose: 12.5 mg/kg/injection, schedule: Q01DX Z (sc), vehicle: steriod suspending solution.
Setting [15] is: dose: 25.0 mg/kg/injection, schedule: Q01DX Z (sc), vehicle: steriod suspending solution.
The mark [16] stands for this setting: dose: 50.0 mg/kg/injection, schedule: Q01DX Z (sc), vehicle: steriod suspending solution.
[17] abbreviates: dose: 100.0 mg/kg/injection, schedule: Q01DX Z (sc), vehicle: steriod suspending solution.

As for `Cc1cc(N(CCCl)CCCl)ccc1N=Nc1ccccc1C(=O)O`, the T/C reads like this: under setting [1], 105 % of control; (dose: 7.5 mg/kg/injection, schedule: Q01DX Z (ip), vehicle: carboxymethylcellulose (CMC)) 101 % of control; under setting [2], 110 % of control and 95 % of control; (dose: 15.0 mg/kg/injection, schedule: Q01DX Z (ip), vehicle: carboxymethylcellulose (CMC)) 104 % of control; under setting [3], 110 % of control and 90 % of control; (dose: 30.0 mg/kg/injection, schedule: Q01DX Z (ip), vehicle: carboxymethylcellulose (CMC)) 104 % of control. Moreover, the T/C under setting [4] is 110 % of control.
Turning to `CCCCn1cnc2c(=S)nc[nH]c21`, the T/C runs as follows: (dose: 12.5 mg/kg/injection, schedule: Q01DX Z (ip), vehicle: carboxymethylcellulose (CMC)) 105 % of control; (dose: 16.0 mg/kg/injection, schedule: Q01DX010 (ip), vehicle: saline) 115 % of control; (dose: 25.0 mg/kg/injection, schedule: Q01DX Z (ip), vehicle: carboxymethylcellulose (CMC)) 98 % of control; (dose: 50.0 mg/kg/injection, schedule: Q01DX Z (ip), vehicle: carboxymethylcellulose (CMC)) 114 % of control; (dose: 100.0 mg/kg/injection, schedule: Q01DX Z (ip), vehicle: carboxymethylcellulose (CMC)) 98 % of control; (dose: 128.0 mg/kg/injection, schedule: Q01DX010 (ip), vehicle: saline) 95 % of control.
In the case of `O=CCC(O)C(O)C(O)CO` (centres undefined), the T/C (dose: 31.25 mg/kg/injection, schedule: Q01DX Z (ip), vehicle: carboxymethylcellulose (CMC)) was 95 % of control; the T/C under setting [5] was 88 % of control; the T/C under setting [6] is 88 % of control; the T/C under setting [7] was 97 % of control.
As to `N[C@@H](Cc1ccc(N(CCCl)CCCl)cc1)C(=O)O`, the T/C (dose: 0.31 mg/kg/injection, schedule: Q01DX Z (ip), vehicle: saline) was 159 % of control; the T/C (dose: 0.63 mg/kg/injection, schedule: Q01DX Z (ip), vehicle: saline) was 206 % of control; the T/C under setting [8] was 193 % of control; the T/C under setting [9] was 229 % of control; the T/C (dose: 5.0 mg/kg/injection, schedule: Q01DX Z (ip), vehicle: saline) was 217 % of control; the T/C (dose: 10.0 mg/kg/injection, schedule: Q01DX Z (ip), vehicle: saline) was 107 % of control.
Regarding `N=[N+]=CC(=O)OCC(N)C(=O)O` (centres undefined), the T/C (dose: 0.94 mg/kg/injection, schedule: Q01DX Z (ip), vehicle: saline) was 113 % of control; the T/C under setting [8] was 118 % of control and 122 % of control; the T/C under setting [9] is 107 % of control and 117 % of control; the T/C (dose: 3.75 mg/kg/injection, schedule: Q01DX Z (ip), vehicle: saline) was 160 % of control; the T/C under setting [10] is 175 % of control; the T/C under setting [11] is 90 % of control and 95 % of control.
In the case of `OCC1OC(n2cnc3c(=S)nc[nH]c32)C(O)C1O` (centres undefined), the T/C was 110 % of control and 105 % of control under setting [3]; 110 % of control and 100 % of control under setting [4]; 160 % of control under setting [5]; 115 % of control and 120 % of control (dose: 80.0 mg/kg/injection, schedule: Q01DX010 (ip), vehicle: saline); 158 % of control under setting [6]; 120 % of control (dose: 160.0 mg/kg/injection, schedule: Q01DX010 (ip), vehicle: saline). In addition, the T/C under setting [7] is 104 % of control and the T/C (dose: 500.0 mg/kg/injection, schedule: Q01DX Z (ip), vehicle: carboxymethylcellulose (CMC)) was 94 % of control.
For the compound `O=C(Nc1ccc(C2=NCCCN2)cc1)c1ccc(NC(=O)c2ccc(C3=NCCCN3)cc2)cc1`, the T/C was 123 % of control (dose: 1.95 mg/kg/injection, schedule: Q01DX Z (ip), vehicle: water); 157 % of control (dose: 3.9 mg/kg/injection, schedule: Q01DX Z (ip), vehicle: carboxymethylcellulose (CMC)); 193 % of control (dose: 3.9 mg/kg/injection, schedule: Q01DX Z (ip), vehicle: water); 202 % of control (dose: 7.8 mg/kg/injection, schedule: Q01DX Z (ip), vehicle: water); 92 % of control (dose: 15.6 mg/kg/injection, schedule: Q01DX Z (ip), vehicle: carboxymethylcellulose (CMC)); 86 % of control (dose: 15.6 mg/kg/injection, schedule: Q01DX Z (ip), vehicle: water).
As for `O=[n+]1c2c(n([O-])c3ccccc31)-c1cccc3cccc-2c13`, the T/C is 100 % of control (dose: 6.25 mg/kg/injection, schedule: Q01DX010 (ip), vehicle: saline); 100 % of control under setting [10]; 88 % of control and 90 % of control under setting [11]; 88 % of control and 90 % of control under setting [12].
With `Nc1ncnc2c1ccn2C1OC(CO)C(O)C1O` (centres undefined), the T/C is 98 % of control (dose: 0.04 mg/kg/injection, schedule: Q01DX Z (ip), vehicle: carboxymethylcellulose (CMC)); 94 % of control (dose: 0.08 mg/kg/injection, schedule: Q01DX Z (ip), vehicle: carboxymethylcellulose (CMC)); 101 % of control (dose: 0.16 mg/kg/injection, schedule: Q01DX Z (ip), vehicle: carboxymethylcellulose (CMC)); 110 % of control and 112 % of control (dose: 0.31 mg/kg/injection, schedule: Q01DX Z (ip), vehicle: carboxymethylcellulose (CMC)); 108 % of control (dose: 0.63 mg/kg/injection, schedule: Q01DX Z (ip), vehicle: carboxymethylcellulose (CMC)); 88 % of control (dose: 1.25 mg/kg/injection, schedule: Q01DX Z (ip), vehicle: carboxymethylcellulose (CMC)).
With `Clc1ccc(C(c2ccccc2Cl)C(Cl)Cl)cc1` (centres undefined), the T/C reads like this: (dose: 0.8 mg/kg/injection, schedule: Q01DX Z (sc), vehicle: steriod suspending solution) 110 % of control; (dose: 3.1 mg/kg/injection, schedule: Q01DX Z (sc), vehicle: steriod suspending solution) 117 % of control; under setting [13], 101 % of control; under setting [14], 100 % of control; under setting [15], 93 % of control and 95 % of control; under setting [16], 93 % of control. Moreover, under setting [17], the T/C was 87 % of control.
Regarding `C[C@]12C=CC(=O)C=C1CC[C@@H]1[C@@H]2C(=O)C[C@@]2(C)[C@H]1CC[C@]2(O)C(=O)CO`, the T/C was 114 % of control under setting [13]; 93 % of control and 100 % of control (dose: 12.5 mg/kg/injection, schedule: Q01DX010 (sc), vehicle: steriod suspending solution); 111 % of control and 124 % of control under setting [14]; 112 % of control and 100 % of control and 101 % of control (dose: 25.0 mg/kg/injection, schedule: Q01DX010 (sc), vehicle: steriod suspending solution); 105 % of control and 117 % of control under setting [15]; 107 % of control and 95 % of control and 100 % of control (dose: 50.0 mg/kg/injection, schedule: Q01DX010 (sc), vehicle: steriod suspending solution). The T/C by setting is: under setting [16], 105 % of control and 91 % of control; (dose: 100.0 mg/kg/injection, schedule: Q01DX010 (sc), vehicle: steriod suspending solution) 112 % of control and 92 % of control and 93 % of control; under setting [17], 92 % of control and 102 % of control; (dose: 200.0 mg/kg/injection, schedule: Q01DX010 (sc), vehicle: steriod suspending solution) 92 % of control and 93 % of control; (dose: 200.0 mg/kg/injection, schedule: Q01DX Z (sc), vehicle: steriod suspending solution) 98 % of control.
Take `N=C(N)SCc1c2ccccc2c(CSC(=N)N)c2ccccc12`: the T/C reads like this: (dose: 2.5 mg/kg/injection, schedule: Q01DX010 (ip), vehicle: saline) 220 % of control; under setting [1], 183 % of control and 210 % of control; under setting [2], 155 % of control and 240 % of control; under setting [3], 172 % of control and 200 % of control; under setting [4], 122 % of control.
For the compound `CS(=O)(=O)OCCC(=O)N1CCN(C(=O)CCOS(C)(=O)=O)CC1`, the T/C was 150 % of control and 285 % of control under setting [11]; 260 % of control and 277 % of control under setting [12]; 120 % of control and 205 % of control (dose: 100.0 mg/kg/injection, schedule: Q01DX010 (ip), vehicle: saline).
